Measured values published in US20110230430A1, “SAPONIN EXTRACT FROM SAPONARIA SPP. AND USES THEREOF” (NATIONAL RESEARCH COUNCIL OF CANADA, priority 2008, published 2011).

Legend:
PC-3 cells = assay: Dual Sensor: MitoCasp Assay in PC-3 prostate cancer cells; assay type: cell-based, human
Source text: (§1) Techniques to assay enzymatic and signaling processes involved in apoptosis have been developed as standard protocols. One example of an early step in apoptosis, is the release of cytochrome C from mitochondria and the activation of caspase-3. Induction of the caspases (a series of cytosolic proteases) is one of the most consistently observed features of apoptosis. Caspases are a family of proteolytic enzymes that transmit the apoptotic signal using a proteolytic cascade. […] Caspases 3 and 7 are effector caspases, central to the caspase cascade pathways. In particular, caspase-3 plays a central role in the process. When caspases are activated, they cleave target proteins; one of the most important of these is poly-(ADP-ribose) polymerase (PARP), which is a protein located in the nucleus. Therefore, assays detecting release of cytochrome C, detecting caspase-3 activity and detecting PARP degradation are effective determinants of apoptosis. The loss of mitochondrial membrane potential is known to occur during apoptosis. To analyze mitochondrial membrane potential, a cationic dye may be used which accumulates in the mitochondria of healthy cells. Collapse of the mitochondrial membrane potential during apoptosis prevents the dye from accumulating in the mitochondria resulting in a decrease in fluorescent intensity that can be detected with flow cytometry. Dual Sensor: MitoCasp™ (Cell Technology) used herein in the Examples is an assay that measures caspase 3/7 activity and cells with decreased mitochondrial membrane potential. In this assay, caspase 3/7 activity is detected using a cell permeable carboxyfluorescein labeled caspase inhibitor, which binds covalently to active caspases 3 and 7. Cells that contain bound inhibitor are detected by an increase in fluorescence when samples are analyzed by flow cytometry.
PC-3 cells (ATCC #CRL-1435) were derived from a prostate adenocarcinoma (Kaighn et al., 1979). They were maintained in RPMI 1640 medium (Gibco) supplemented with 10% fetal bovine serum (Cansera), 100 U/mL penicillin, and 100 μg/mL streptomycin and 0.25 μg/mL amphotericin B. Cultures were maintained in medium at 37° C. with 5% CO2 and 100% relative humidity.
To harvest adherent cells, the existing medium was removed and cells were dissociated with 0.25% (w/v) trypsin-EDTA·4Na in Hank's Balanced Salt Solution (Gibco). To block the proteolytic action of the trypsin, the cells were resuspended in an excess of media containing fetal bovine serum. Cells were transferred to a 15 mL conical centrifuge tube and pelleted by centrifugation at 500×g for 5 min. Cell pellets were resuspended in media, and an aliquot of the cells were seeded into a new flask.
PC-3 cells were seeded in tissue culture flasks with regular growth medium and maintained under normal conditions. […] Following incubation under normal growth conditions for the specified time, cells were washed once with cold phosphate-buffered saline (PBS) (137 mM NaCl, 2.7 mM KCl, 4.3 mM Na2HPO4.7H2O, 1.4 mM KH2PO4) and harvested as previously described. Assays were carried out according to instructions given in kits. All Flow Cytometry was performed using a Coulter Epics XL (Beckman).
(§2) Following centrifugation at 500×g for 5 min, cell pellets were resuspended in PBS at 3.3×10^6 cells/mL. 300 μL cell suspension was mixed with 10 μL each of 30X Mitochondria Membrane Potential Dye and 30X Caspase 3/7 detection reagent. Following incubation for 60 min under normal growth conditions, cells were washed twice with 1× wash buffer and resuspended in 0.5 mL 1× wash buffer. Samples were analyzed by flow cytometry measuring the fluorescence emissions from 515 nm to 530 nm for caspase detection, and 574 nm to 600 nm for mitochondrial membrane potential detection.

MDA-MB-231 cells = assay: Dual Sensor: MitoCasp Assay in MDA-MB-231 breast cancer cells; assay type: cell-based, human
Source text: as §1, §2
The MDA-MB-231 cell line (ATCC #HTB-26) was derived from the pleural effusion of a patient with a breast adenocarcinoma (Cailleau et al., 1974). The cells were maintained in RPMI 1640 (Gibco) supplemented with 10% fetal bovine serum (Camera), 100 U/mL penicillin, 100 μg/mL streptomycin and 0.25 μg/mL amphotericin B. Cultures were maintained in medium at 37° C. with 5% CO2 and 100% relative humidity. […]

CRL-2522 cells = assay: Dual Sensor: MitoCasp Assay in CRL-2522 normal fibroblast cells; assay type: cell-based, human; conditions: CRL-2522 cells
Source text: as §1, §2
CRL-2522 cells, acquired from ATCC, (American Type Culture Collection) are normal fibroblast cells that originated from human foreskin. CRL-2522 cells were maintained in RPMI 1640 medium (Gibco) supplemented with 10% fetal bovine serum (Cansera), 100 U/mL penicillin, 100 μg/mL streptomycin and 0.25 μg/mL amphotericin B. Cultures were maintained in medium at 37° C. with 5% CO2 and 100% relative humidity. […]

HT-29 cancer cells = assay: Dual Sensor: MitoCasp Assay in HT-29 colon cancer cells; assay type: cell-based, human; conditions: HT-29 cells, 2.5 μM, 5.0 μM, 10 μM and 15 μM, 24 hours
Source text: as §1, with “To analyze mitochondrial membrane potential, a cationic dye may be used which accumulates in the mitochondria of healthy cells.” left out, “Dual Sensor: MitoCasp™ (Cell Technology) used herein in the Examples is an assay that measures caspase 3/7 activity and cells with decreased mitochondrial membrane potential.” left out
Following PC1448 treatment, adherent and non-adherent cells were harvested and washed with cold PBS. […] Samples were analyzed by flow cytometry measuring the fluorescence emissions from 515 nm to 530 nm for caspase detection, and 574 nm to 600 nm for mitochondrial membrane potential detection. […]
HT-29 cancer cells were treated with 2.5 μM, 5.0 μM and 10 μM of PC1526 or PC1448 for 23 hours, or with 2.5 μM, 5.0 μM and 10 μM PC1422 for 24 hours and assessed using the Dual Sensor: MitoCasp™ Assay. […]

[1] = Haemolytic properties of selected saponins; conditions: saponins purified to more than 75%
Source text: The haemolytic properties of the various saponins that have been purified to more than 75% have been examined and are provided in Table 39. Haemolytic properties are not directly related to anti-cancer or apoptosis inducing properties of saponins but may be related to toxicity and utility of the saponins for preparation of injectable formulations. Saponins most suitable for injectable formulation will be less haemolytic. QS21, a purified Quillaja saponaria saponin with known haemolytic activity is used as reference.

CC1OC(OC(=O)C23CCC(C)(C)CC2C2=CCC4C5(C)CCC(OC6OC(C(=O)O)C(O)C(O)C6OC6OC(CO)C(O)C(O)C6O)C(C)(C=O)C5CCC4(C)C2(C)CC3O)C(OC2OC(C)C(OC3OCC(O)C(O)C3O)C(O)C2O)C(OC2OC(CO)C(O)C2O)C1O (centres unmarked) [PC1380]
Cells with caspase 3/7 activity (PC-3 cells; 2.5 μM PC1380, 35 hr): 11.4% | Cells with decreased mitochondrial membrane potential (PC-3 cells; 2.5 μM PC1380, 35 hr): 5.8% | Cells with caspase 3/7 activity (PC-3 cells; 5.0 μM PC1380, 35 hr): 15.3% | Cells with decreased mitochondrial membrane potential (PC-3 cells; 5.0 μM PC1380, 35 hr): 7.1% | Cells with caspase 3/7 activity (PC-3 cells; 10.0 μM PC1380, 35 hr): 14.9% | Cells with decreased mitochondrial membrane potential (PC-3 cells; 10.0 μM PC1380, 35 hr): 8.7% | Cells with caspase 3/7 activity (PC-3 cells; 15.0 μM PC1380, 35 hr): 31.8% | Cells with decreased mitochondrial membrane potential (PC-3 cells; 15.0 μM PC1380, 35 hr): 15.9% | Cells with Caspase 3/7 activity and decreased mitochondrial membrane potential vs untreated (in words) (PC-3 cells; PC1380 15.0-2.5 μM, 35 hours): small increase | Cells with caspase 3/7 activity (MDA-MB-231 cells; 2.5 μM PC1380, 34 hr): 6.2% | Cells with decreased mitochondrial membrane potential (MDA-MB-231 cells; 2.5 μM PC1380, 34 hr): 3.2% | Cells with caspase 3/7 activity (MDA-MB-231 cells; 5.0 μM PC1380, 34 hr): 8.0% | Cells with decreased mitochondrial membrane potential (MDA-MB-231 cells; 5.0 μM PC1380, 34 hr): 4.7% | Cells with caspase 3/7 activity (MDA-MB-231 cells; 10.0 μM PC1380, 34 hr): 9.4% | Cells with decreased mitochondrial membrane potential (MDA-MB-231 cells; 10.0 μM PC1380, 34 hr): 6.6% | Cells with caspase 3/7 activity (MDA-MB-231 cells; 15.0 μM PC1380, 34 hr): 7.9% | Cells with decreased mitochondrial membrane potential (MDA-MB-231 cells; 15.0 μM PC1380, 34 hr): 4.3% | Apoptosis activity (in words) (MDA-MB-231 cells; PC1380 15.0-2.5 μM, 34 hours): no significant apoptosis activity | Cells with caspase 3/7 activity (CRL-2522 cells; 2.5 μM PC1380, 32 hr): 0.4% | Cells with decreased mitochondrial membrane potential (CRL-2522 cells; 2.5 μM PC1380, 32 hr): 1.8% | Cells with caspase 3/7 activity (CRL-2522 cells; 5.0 μM PC1380, 32 hr): 1.0% | Cells with decreased mitochondrial membrane potential (CRL-2522 cells; 5.0 μM PC1380, 32 hr): 4.0% | Cells with caspase 3/7 activity (CRL-2522 cells; 10.0 μM PC1380, 32 hr): 1.2% | Cells with decreased mitochondrial membrane potential (CRL-2522 cells; 10.0 μM PC1380, 32 hr): 2.6% | Cells with caspase 3/7 activity (CRL-2522 cells; 15.0 μM PC1380, 32 hr): 0.9% | Cells with decreased mitochondrial membrane potential (CRL-2522 cells; 15.0 μM PC1380, 32 hr): 4.5% | Apoptosis (in words) (CRL-2522 cells; PC1380 15.0-2.5 μM, 32 hours): no significant apoptosis | Induction of apoptosis (in words, FIG. 6) (HT-29 cancer cells): does not induce apoptosis

QS21 [reference compound]
HD50 [1]: 7.5 µM
